Test results as given in patent publication US9289430B2, “Compounds and methods for inhibiting phosphate transport” (Ardelyx, Inc., priority 2010, dated 2016).

Tests used:
human NaP2b (SLC34A2) = target: T1, human NaP2b (SLC34A2) (Homo sapiens, UniProt O95436); experiment: NaP2b-mediated Pi transport: 33P phosphate uptake into transfected HEK293 cells; assay type: cell-based; details: human protein with threonine inserted after residue 37 and N39D, 100 uM KH2PO4, read-out: pIC50 range for human Nap2b (converted)
T1 construct: host or cells: HEK293
T1 sequence (O95436 1-690): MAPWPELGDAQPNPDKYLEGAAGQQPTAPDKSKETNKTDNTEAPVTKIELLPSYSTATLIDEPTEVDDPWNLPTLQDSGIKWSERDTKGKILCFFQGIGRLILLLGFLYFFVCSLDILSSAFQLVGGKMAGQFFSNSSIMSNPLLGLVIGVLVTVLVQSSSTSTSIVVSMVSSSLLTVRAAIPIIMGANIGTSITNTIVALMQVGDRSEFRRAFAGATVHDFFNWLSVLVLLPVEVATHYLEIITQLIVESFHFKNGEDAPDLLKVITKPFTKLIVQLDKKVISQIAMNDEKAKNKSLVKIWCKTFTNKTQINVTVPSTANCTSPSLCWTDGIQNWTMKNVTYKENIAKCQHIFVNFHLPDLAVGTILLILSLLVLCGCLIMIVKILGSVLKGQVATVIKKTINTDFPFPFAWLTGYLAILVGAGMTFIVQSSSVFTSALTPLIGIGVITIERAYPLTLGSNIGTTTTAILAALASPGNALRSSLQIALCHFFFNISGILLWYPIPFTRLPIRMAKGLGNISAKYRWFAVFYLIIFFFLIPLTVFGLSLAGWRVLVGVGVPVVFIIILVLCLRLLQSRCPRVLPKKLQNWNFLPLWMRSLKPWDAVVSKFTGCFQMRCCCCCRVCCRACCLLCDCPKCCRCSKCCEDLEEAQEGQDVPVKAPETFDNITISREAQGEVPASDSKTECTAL
Outline: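 Transiently transfected HEK293 cells, human clone carrying Thr insertion after residue 37 and N39D; PiT transport silenced pharmacologically. ^33P-phosphate uptake in sodium buffer (100 uM KH2PO4, pH 7.4) versus choline buffer, 3-30 min at room temperature, twelve concentrations 0.1 nM–30 uM in duplicate; scintillation counting, pIC50 derived.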

rat NaP2b (SLC34A2) = target: T2, rat NaP2b (SLC34A2) (Rattus norvegicus, UniProt Q9JJ09); experiment: as above; assay type: cell-based; details: 100 uM KH2PO4, PiT-silencing agent, read-out: pIC50 range for rat Nap2b (converted)
T2 construct: host or cells: HEK293
T2 sequence (Q9JJ09 1-695): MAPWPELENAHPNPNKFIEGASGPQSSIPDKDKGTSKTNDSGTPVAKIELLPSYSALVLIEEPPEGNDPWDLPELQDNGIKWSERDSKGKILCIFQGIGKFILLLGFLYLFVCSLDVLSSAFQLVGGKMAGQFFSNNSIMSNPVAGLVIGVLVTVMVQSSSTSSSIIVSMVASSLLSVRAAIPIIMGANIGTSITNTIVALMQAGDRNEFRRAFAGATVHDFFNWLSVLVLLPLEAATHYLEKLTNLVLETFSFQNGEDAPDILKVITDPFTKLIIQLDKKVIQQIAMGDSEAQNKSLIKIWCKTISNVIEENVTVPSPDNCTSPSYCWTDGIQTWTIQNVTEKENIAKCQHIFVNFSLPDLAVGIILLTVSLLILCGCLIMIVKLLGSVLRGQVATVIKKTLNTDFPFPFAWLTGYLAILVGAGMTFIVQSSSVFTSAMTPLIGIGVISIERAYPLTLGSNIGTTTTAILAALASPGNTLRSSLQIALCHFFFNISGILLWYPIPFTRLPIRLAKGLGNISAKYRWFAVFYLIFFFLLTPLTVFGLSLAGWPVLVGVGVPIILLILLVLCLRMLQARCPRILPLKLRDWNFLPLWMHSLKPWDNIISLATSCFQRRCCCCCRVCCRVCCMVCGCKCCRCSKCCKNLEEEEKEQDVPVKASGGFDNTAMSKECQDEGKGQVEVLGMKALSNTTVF

[1] = Fecal recovery of orally administered compounds; assay type: in vivo, Sprague-Dawley rats; details: rats, oral gavage, nominal 10 mg/kg (actual 7.6-11 mg/kg), feces 0-48 hr after dosing
Procedure: Quantitative determination of test compound level in feces after oral gavage was performed using the same set of animals used to determine test compound concentration in plasma (Example 30). The animals were kept in metabolic cages and feces were collected from the time of dosing until 48 hr after dosing. Upon collection, feces was dried by lyophilization and ground to a visually homogenous powder. Duplicate samples of ground feces from each individual animal were weighed out and extracted using organic solvent. Extracted samples were then diluted into mobile phase and test compound levels were quantitatively determined by LC-MS/MS analysis as described in “Example 30” except that the standard curve was prepared in a feces matrix. Extraction conditions were not optimized for individual compounds, and thus may represent a minimal level of recovery.

[2] = Stability in simulated gastric and intestinal fluid; assay type: in vitro ADME; details: 6 hr, 1-20 μM; for % remaining, SGF: simulated gastric fluid with 3 mg/mL pepsin; for % remaining, SIF: simulated intestinal fluid with 3 mg/mL pancreatin
Procedure: Test compounds were incubated at 1-20 μM in simulated gastric fluid (SGF; standard USP solution with 3 mg/mL pepsin) or simulated intestinal fluid (SIF; standard USP solution with 3 mg/mL pancreatin) for 3 hr or 6 hr. HPLC-UV or HPLC-MS were used to determine test compound levels using peak area %. Results (Table 5) were reported as the percentage of test compound remaining after incubation in a given condition relative to test compound present at t=0 in the same condition.

CN(CCN1CCOCC1)C(=O)c1cccc(C(=O)Nc2ccc(N3CCCCC3)cc2C(=O)Nc2ccn(-c3cccc(C(F)(F)F)c3)n2)c1 [Example 11, N1-Methyl-N1-(2-morpholinoethyl)-N3-(4-(piperidin-1-yl)-2-((1-(3-(trifluoromethyl)phenyl)-1H-pyrazol-3-yl)carbamoyl)phenyl)isophthalamide]
IC50 (human NaP2b (SLC34A2)): < 1000 nM | IC50 (rat NaP2b (SLC34A2)): < 1000 nM | % recovered in feces [1]: 47%

O=C(O)CCOCCOCCOCCNC(=O)Cc1cccc(SCc2cccc(C(=O)Nc3ccc(N4CCCCC4)cc3C(=O)Nc3ccn(-c4cccc(C(F)(F)F)c4)n3)c2)c1 [Example 26, 2-Oxo-1-(3-((3-((4-(piperidin-1-yl)-2-((1-(3-(trifluoromethyl)phenyl)-1H-pyrazol-3-yl)carbamoyl)phenyl)carbamoyl)benzyl)thio)phenyl)-6,9,12-trioxa-3-azapentadecan-15-oic acid]
IC50 (human NaP2b (SLC34A2)): < 1000 nM | IC50 (rat NaP2b (SLC34A2)): < 1000 nM | % remaining, SGF [2]: 91% | % remaining, SIF [2]: 95% | % recovered in feces [1]: 9.5%

CN(CCN1CCOCC1)C(=O)c1cccc(C(=O)Nc2ccc(Cl)cc2C(=O)Nc2ccn(-c3cccc(C(F)(F)F)c3)n2)c1 [Example 14, N1-(4-Chloro-2-((1-(3-(trifluoromethyl)phenyl)-1H-pyrazol-3-yl)carbamoyl)phenyl)-N3-methyl-N3-(2-morpholinoethyl)isophthalamide 2,2,2-trifluoroacetate]
IC50 (human NaP2b (SLC34A2)): < 1000 nM | IC50 (rat NaP2b (SLC34A2)): < 1000 nM | % remaining, SGF [2]: 93% | % remaining, SIF [2]: 72% | % recovered in feces [1]: 6.6%
